The results in this text go back to US20220073496A1, “NOVEL QUINOLINE DERIVATIVE INHIBITOR” (Nanjing Transthera Biosciences Co., Ltd., priority 2018, published 2022).

The target in one test is T1, TrkA (h) (Homo sapiens, UniProt P04629).
T1 construct: purchased
Briefly: Enzymatic activity test, TrkA (h). Format: biochemical. The settings on record: 10 μM [γ-33P]-ATP, 40 minutes, room temperature. Here is the method: (§1) Assay 4: Enzymatic Activity Test of the Compound of the Present Invention
(§2) Test substances: the compounds of the present invention, wherein the structures and preparations thereof were as described above.
(§3) Preparation of the Compound Stock Solution
(§4) The compound was dissolved in 100% DMSO to prepare a stock solution with a maximum concentration of 500 μM.
(§5) Preparation of the Compound Working Solution
(§6) The compound stock solution was diluted to final concentrations of 500, 150, 50, 15. 5, 1.5, 0.5, 0.15 and 0.05 μM to become the compound working solutions (50×).
(§7) Preparation of Different Enzyme Reaction Solutions
The TrkA (h) enzyme was dissolved in 8 mM MOPS (pH 7.0), 0.2 mM EDTA, and 250 μM KKKSPGEYVNIEFG to prepare an enzyme solution having a final concentration of 1.7 nM. The enzymatic reaction was activated by using 10 mM magnesium acetate and 10 μM [γ-^33P]-ATP to form an Mg/ATP mixed solution.
(§8) In a 384-well plate, the compound working solution was added to final concentrations of 10000, 3000, 1000, 300, 100, 30, 10, 3, and 1 nM. Then different enzyme reaction solutions prepared according to the above conditions were added. The incubation was carried out for 40 minutes at room temperature. The test was terminated by the addition of a 0.5% phosphoric acid solution. 10 μL of the reaction solution was taken and dropped to the P30 filter paper. The filter paper was washed 4 times with 0.425% phosphoric acid solution and once with methanol, and then placed on a scintillation counter. The […] IC50 values were calculated using GraphPad 5.0 software.

A further test deals with T2, TrkB (h) (Homo sapiens, UniProt Q16620).
T2 construct: purchased
T2 sequence (Q16620 32-822): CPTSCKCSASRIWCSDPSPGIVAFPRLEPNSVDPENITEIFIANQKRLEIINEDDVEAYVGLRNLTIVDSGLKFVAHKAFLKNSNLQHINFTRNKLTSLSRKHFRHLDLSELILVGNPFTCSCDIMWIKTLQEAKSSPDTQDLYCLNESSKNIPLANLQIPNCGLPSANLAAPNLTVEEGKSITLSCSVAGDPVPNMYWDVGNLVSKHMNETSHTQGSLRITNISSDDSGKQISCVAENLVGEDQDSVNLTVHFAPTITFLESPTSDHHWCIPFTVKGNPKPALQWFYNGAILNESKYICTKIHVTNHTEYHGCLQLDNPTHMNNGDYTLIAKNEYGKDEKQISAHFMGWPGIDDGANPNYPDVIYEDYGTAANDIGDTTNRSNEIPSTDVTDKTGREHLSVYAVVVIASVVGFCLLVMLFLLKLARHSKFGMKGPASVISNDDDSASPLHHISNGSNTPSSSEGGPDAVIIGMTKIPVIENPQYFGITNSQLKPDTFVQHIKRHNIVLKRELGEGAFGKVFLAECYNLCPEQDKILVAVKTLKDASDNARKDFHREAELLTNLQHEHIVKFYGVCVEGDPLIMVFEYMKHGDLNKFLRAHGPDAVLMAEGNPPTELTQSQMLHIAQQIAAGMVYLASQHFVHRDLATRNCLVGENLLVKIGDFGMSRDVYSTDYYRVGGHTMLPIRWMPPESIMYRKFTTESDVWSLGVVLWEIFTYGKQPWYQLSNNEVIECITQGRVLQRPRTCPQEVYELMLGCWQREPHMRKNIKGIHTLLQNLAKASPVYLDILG
Briefly: Enzymatic activity test, TrkB (h). In kind it is biochemical. The settings on record: 10 μM [γ-33P]-ATP, 40 minutes, room temperature. The protocol:
as §1, §2, §3, §4, §5, §6, §7
The TrkB (h) enzyme was dissolved in 8 mM MOPS (pH 7.0), 0.2 mM EDTA, and 0.1 mg/mL poly(Glu, Tyr) 4:1 to prepare an enzyme solution having a final concentration of 3.1 nM. The enzymatic reaction was activated by using 10 mM magnesium acetate and 10 μM [γ-^33P]-ATP to form an Mg/ATP mixed solution,
as §8

For another test, the target named is T3, Ba/F3 LMNA-NTRK1 cells (Homo sapiens, UniProt P04629).
T3 construct: fused on or other part: P02545 (Prelamin-A/C)
T3 sequence (P04629 whole entry, change not shown, the tested form may be a part): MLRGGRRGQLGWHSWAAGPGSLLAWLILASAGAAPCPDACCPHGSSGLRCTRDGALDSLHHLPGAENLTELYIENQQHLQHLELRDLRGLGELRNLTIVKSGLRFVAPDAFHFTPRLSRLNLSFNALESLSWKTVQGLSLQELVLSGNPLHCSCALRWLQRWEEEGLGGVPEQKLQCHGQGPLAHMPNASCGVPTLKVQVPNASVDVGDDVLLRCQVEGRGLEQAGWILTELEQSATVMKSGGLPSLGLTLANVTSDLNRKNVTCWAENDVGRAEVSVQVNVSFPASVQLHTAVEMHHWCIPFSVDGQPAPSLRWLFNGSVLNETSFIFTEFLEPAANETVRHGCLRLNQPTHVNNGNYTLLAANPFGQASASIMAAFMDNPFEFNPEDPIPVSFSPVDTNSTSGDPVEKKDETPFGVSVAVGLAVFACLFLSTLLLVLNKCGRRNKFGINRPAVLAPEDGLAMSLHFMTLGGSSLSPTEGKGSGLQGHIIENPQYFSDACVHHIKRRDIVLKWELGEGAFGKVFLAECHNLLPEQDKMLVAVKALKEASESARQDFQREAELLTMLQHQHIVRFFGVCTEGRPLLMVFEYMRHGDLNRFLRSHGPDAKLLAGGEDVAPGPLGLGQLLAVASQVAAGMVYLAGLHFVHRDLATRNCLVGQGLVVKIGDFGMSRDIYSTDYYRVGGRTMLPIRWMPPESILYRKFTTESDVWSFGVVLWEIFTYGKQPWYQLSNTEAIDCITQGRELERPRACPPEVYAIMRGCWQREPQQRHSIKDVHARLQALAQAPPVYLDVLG
The test is described as follows: Cell viability test (CTG), Ba/F3 LMNA-NTRK1. In kind it is cell-based. The settings on record: NTRK1 wild type cell, 72 hours, read-out: IC50 Ba/F3 LMNA-NTRK1. The protocol:
(§9) Assay 8: Cell viability test of the compounds of the present invention
Ba/F3 LMNA-NTRK1 is an NTRK1 wild type cell;
(§10) Test substances: the compounds of the present invention, wherein the structures thereof were as described above.
(§11) Test instrument: SpectraMax multi-label microplate reader.
(§12) Each cell was inoculated in a 96-well plate and adherent cells were cultivated overnight. Different concentrations of the compounds (9 dose groups, 3.16 times DMSO serial dilution) were added to give the final concentration of 0.1-1000 nM, and the final DMSO content was 1‰. The negative control wells contained the medium containing 1‰ DMSO. The cells were incubated at 37° C. in a condition of 5% CO2 and 95% humidity for 72 hours for use. An equal volume of CTG reagent was added to each well, and the cells were lysed by shaking for 5 minutes on an orbital shaker, and incubated for 20 minutes at room temperature to stabilize the cold light signal. The cold light signal was read with a microplate reader. Data were analyzed using GraphPad Prism 5.0 software, and data were fitted using nonlinear S-curve regression to derive a dose-response curve and thereby calculate IC50 values.

Test [1] has as its target T4, Ba/F3 LMNA-NTRK1-V573M cells (Homo sapiens, UniProt P04629, V573M, cells depend on it).
T4 construct: Ba/F3 LMNA-NTRK1 G667C and Ba/F3 LMNA-NTRK1-V573M are NTRK1 gene mutant cells; fused on or other part: P02545 (Prelamin-A/C)
The test is described as follows: Cell viability test (CTG), Ba/F3 LMNA-NTRK1-V573M. In kind it is cell-based. The settings on record: NTRK1 gene mutant cell, 72 hours, read-out: IC50 Ba/F3 LMNA-NTRK1-V573M.
Description: as §9
Ba/F3 LMNA-NTRK1 G667C and Ba/F3 LMNA-NTRK1-V573M are NTRK1 gene mutant cells.
as §10, §11, §12

Test [2] has as its target T5, pCSF1R in CSF1R plasmid-transfected HEK293T cells (Homo sapiens, UniProt P07333).
T5 construct: expressed in transfected cells; host or cells: HEK293T
Briefly: Inhibitory activity on the cell pCSF1R (Western Blot). In kind it is cell-based. The settings on record: compound 30, 100, 300, 1000 nM, 120 minutes. The protocol: Assay 7: Test for Inhibitory Activities of the Compounds of the Present Invention on the Cell pCSF1R
HEK293T is a human renal epithelial cell.
as §10
Test equipment: protein electrophoresis apparatus (manufactured by Bio Rad), transfer unit (manufactured by Bio Rad), exposure unit (manufactured by Tanon), CO2 cell incubator (manufactured by Thermo).
The BEK293T cells were inoculated in a 6-well plate (containing 10% FBS DMEM medium, 4×10^5 cells per well), and adherent cells were cultivated at 37° C. in a 5% CO2 condition for 6 hours. Each well was transfected with 2 μg CSF1R plasmid, and the cells were cultivated at 37° C. in a 5% CO2 condition overnight. At 24 hours after transfection, different concentrations of compounds were added to the administration group. The final compound concentrations were 30, 100, 300, and 1000 nM, and the final DMSO content was 1‰. The negative control wells contained the medium containing 1‰ DMSO. […] The inhibitory activity of the compound on the cell pCSF1R was examined.

The target in another test is T6, Ba/F3 ETV6-NTRK2 cells (Homo sapiens, UniProt Q16620).
T6 construct: fused on or other part: P41212 (Transcription factor ETV6)
T6 sequence (Q16620 whole entry, change not shown, the tested form may be a part): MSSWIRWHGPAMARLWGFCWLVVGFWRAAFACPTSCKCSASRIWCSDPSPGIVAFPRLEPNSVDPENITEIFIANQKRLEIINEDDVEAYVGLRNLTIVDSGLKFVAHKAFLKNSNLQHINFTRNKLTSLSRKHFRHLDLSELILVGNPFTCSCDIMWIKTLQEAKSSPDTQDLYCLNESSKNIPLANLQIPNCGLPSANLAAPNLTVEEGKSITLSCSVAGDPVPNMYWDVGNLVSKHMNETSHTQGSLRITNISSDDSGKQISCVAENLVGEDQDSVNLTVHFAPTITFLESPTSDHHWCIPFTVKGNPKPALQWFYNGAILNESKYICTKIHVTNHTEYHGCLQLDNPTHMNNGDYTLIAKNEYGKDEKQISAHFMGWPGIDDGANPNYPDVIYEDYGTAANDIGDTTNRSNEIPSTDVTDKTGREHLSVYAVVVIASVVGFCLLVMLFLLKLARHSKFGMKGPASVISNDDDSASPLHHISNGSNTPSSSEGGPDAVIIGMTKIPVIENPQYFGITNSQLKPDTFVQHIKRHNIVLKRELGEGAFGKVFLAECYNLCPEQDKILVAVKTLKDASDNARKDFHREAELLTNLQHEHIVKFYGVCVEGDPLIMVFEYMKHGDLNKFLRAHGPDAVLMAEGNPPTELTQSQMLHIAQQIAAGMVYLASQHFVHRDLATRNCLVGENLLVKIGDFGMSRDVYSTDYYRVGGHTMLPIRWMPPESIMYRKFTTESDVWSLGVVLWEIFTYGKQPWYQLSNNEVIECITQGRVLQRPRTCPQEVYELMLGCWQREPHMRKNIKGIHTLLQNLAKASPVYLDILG
Briefly: Cell viability test (CTG), Ba/F3 ETV6-NTRK2. In kind it is cell-based. The settings on record: NTRK2 wild type cell, 72 hours, read-out: IC50 Ba/F3 ETV6-NTRK2. Here is the method: as §9
Ba/F3 ETV6-NTRK2 is an NTRK 2 wild type cell;
as §10, §11, §12

T4 sequence (P04629 whole entry V573M, the tested form may be a part): as the sequence (P04629 whole entry, change not shown, the tested form may be a part) above, with V573M counted along it
T1 sequence (P04629 33-796): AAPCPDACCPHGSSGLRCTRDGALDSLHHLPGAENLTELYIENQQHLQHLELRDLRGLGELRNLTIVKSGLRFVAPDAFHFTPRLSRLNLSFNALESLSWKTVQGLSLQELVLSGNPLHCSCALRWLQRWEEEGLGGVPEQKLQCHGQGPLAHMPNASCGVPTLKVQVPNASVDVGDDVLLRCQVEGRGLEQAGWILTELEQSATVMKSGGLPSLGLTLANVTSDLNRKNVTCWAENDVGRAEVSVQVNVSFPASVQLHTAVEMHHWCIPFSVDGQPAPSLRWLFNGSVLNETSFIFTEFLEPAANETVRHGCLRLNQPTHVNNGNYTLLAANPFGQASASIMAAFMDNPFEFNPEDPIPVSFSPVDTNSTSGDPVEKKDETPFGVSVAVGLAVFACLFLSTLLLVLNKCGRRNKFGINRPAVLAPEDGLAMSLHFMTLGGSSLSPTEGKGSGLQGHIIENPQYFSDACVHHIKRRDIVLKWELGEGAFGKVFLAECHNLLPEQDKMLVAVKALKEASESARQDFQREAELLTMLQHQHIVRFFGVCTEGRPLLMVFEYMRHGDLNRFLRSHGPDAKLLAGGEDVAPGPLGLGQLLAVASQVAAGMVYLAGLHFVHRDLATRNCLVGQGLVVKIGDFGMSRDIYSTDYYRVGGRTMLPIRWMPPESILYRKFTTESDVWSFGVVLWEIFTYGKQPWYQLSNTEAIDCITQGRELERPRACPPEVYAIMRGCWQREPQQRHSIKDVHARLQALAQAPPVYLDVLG
T5 sequence (P07333 20-972): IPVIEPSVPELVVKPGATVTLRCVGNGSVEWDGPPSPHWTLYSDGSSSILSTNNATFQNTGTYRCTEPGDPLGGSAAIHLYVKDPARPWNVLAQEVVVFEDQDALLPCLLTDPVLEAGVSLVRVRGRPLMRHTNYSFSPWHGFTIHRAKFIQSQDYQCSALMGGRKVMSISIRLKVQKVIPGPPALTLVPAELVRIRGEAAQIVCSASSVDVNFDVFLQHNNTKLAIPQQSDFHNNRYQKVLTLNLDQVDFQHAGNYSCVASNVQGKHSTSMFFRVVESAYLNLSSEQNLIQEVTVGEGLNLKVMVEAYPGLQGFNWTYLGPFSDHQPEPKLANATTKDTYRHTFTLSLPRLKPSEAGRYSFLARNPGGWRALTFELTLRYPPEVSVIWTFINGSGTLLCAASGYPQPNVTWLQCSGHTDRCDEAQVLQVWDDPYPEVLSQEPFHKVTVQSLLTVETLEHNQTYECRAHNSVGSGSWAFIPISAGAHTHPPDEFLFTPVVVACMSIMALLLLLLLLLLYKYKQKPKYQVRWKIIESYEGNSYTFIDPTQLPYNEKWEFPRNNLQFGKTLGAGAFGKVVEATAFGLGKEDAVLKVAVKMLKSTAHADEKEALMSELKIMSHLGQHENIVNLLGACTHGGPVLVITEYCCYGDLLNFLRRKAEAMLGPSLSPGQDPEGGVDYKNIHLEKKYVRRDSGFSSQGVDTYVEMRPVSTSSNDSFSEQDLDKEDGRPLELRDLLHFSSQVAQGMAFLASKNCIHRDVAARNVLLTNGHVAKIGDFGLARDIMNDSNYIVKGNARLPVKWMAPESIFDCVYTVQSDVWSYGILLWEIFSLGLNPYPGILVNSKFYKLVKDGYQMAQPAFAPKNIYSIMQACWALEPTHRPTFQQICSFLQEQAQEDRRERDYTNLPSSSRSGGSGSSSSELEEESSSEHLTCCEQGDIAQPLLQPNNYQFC

One may read the IC50 as the point on the concentration scale where inhibition reaches its midpoint. A lower IC50 goes with greater potency in that assay. Take `COc1cc2nccc(Oc3cnc(NC(=O)c4cn(C(C)C)nc(-c5ccc(F)cc5)c4=O)nc3)c2cc1OC` [Compound 39, N-(5-((6,7-dimethoxyquinolin-4-yl)oxy)pyrimidine-2-yl)-6-(4-fluorophenyl)-2-isopropyl-5-oxo-2,5-dihydropyridazine-4-carboxamide]: the 50% inhibitory concentration (IC50) at TrkA (h) was found to be 18 nM; at TrkB (h), 17 nM. Further, the GI50 at Ba/F3 LMNA-NTRK1 cells turned out to be 42.4 nM; in test [1], 5 nM.
Consider `COc1cc2nccc(Oc3ccc(NC(=O)c4nn(C5CC5)cc(-c5ccc(F)cc5)c4=O)cn3)c2cc1OC` [Compound 36], for which the figures for the IC50 against TrkA (h) and at TrkB (h) were 2 nM and 4 nM, respectively.
Turning to `COc1cc2nccc(Oc3ncc(NC(=O)c4nn(C5CC5)cc(-c5ccc(F)cc5)c4=O)cn3)c2cc1OC` [Compound 37, 1-cyclopropyl-N-(2-((6,7-dimethoxyquinolin-4-yl)oxy)pyrimidine-5-yl)-5-para-fluorophenyl-4-oxo-1,4-dihydropyridazine-3-carboxamide], the 50% inhibitory concentration (IC50) against TrkA (h) amounted to 7 nM; on TrkB (h) it was 6 nM.
Take `COc1cc2nccc(Oc3ccc(NC(=O)c4nn(C5CC5)cc(-c5ccc(F)cc5)c4=O)nc3)c2cc1OC` [Compound 31]: the half-inhibitory concentration (IC50) was 3 nM against TrkA (h), 3 nM at TrkB (h) and 30 to 100 nM in test [2]. Moreover, the figures for the GI50 (on Ba/F3 LMNA-NTRK1 cells; in test [1]) were 17.3 nM and 1.4 nM, respectively.
As to `COc1cc2nccc(Oc3cnc(NC(=O)c4nn(C5CC5)cc(-c5ccc(F)cc5)c4=O)nc3)c2cc1OC` [Compound 33], the concentration for half-maximal inhibition (IC50) came out at 13 nM against TrkA (h) and 8 nM against TrkB (h). In addition, the GI50 turned out to be 73 nM on Ba/F3 LMNA-NTRK1 cells and 6 nM in test [1].
Turning to `COc1cc2nccc(Oc3ccc(NC(=O)c4cn(C(C)C)nc(-c5ccc(F)cc5)c4=O)nc3)c2cc1OC` [Compound 41, N-(5-((6,7-dimethoxyquinolin-4-yl)oxy)pyridin-2-yl)-6-(4-fluorophenyl)-2-isopropyl-5-oxo-2,5-dihydropyridazine-4-carboxamide], 5 nM corresponded to half-maximal inhibition at TrkA (h) (IC50).
For `COc1cc2nccc(Oc3ccc(NC(=O)c4cn(C(C)C)nc(-c5ccc(F)cc5)c4=O)cn3)c2cc1OC` [Compound 38, N-(6-((6,7-dimethoxyquinolin-4-yl)oxy)pyridin-3-yl)-6-para-fluorophenyl-2-isopropyl-5-oxo-2,5-dihydropyridazine-4-carboxamide], the concentration for half-maximal inhibition (IC50) against TrkA (h) and at TrkB (h) was 11 nM throughout. In addition, the GI50 was 55.1 nM at Ba/F3 LMNA-NTRK1 cells and 7.5 nM in test [1].
Consider `COc1cc2nccc(Oc3ccc(NC(=O)c4nn(C(C)C)cc(-c5ccc(F)cc5)c4=O)nc3)c2cc1OC` [Compound 15, N-(5-((6,7-dimethoxyquinolin-4-yl)oxy)pyridin-2-yl)-5-(4-fluorophenyl)-1-isopropyl-4-oxo-1,4-dihydropyridazine-3-carboxamide], for which the values for the IC50 (against TrkA (h); at TrkB (h); in test [2]) were 6 nM, 3 nM and 100 to 300 nM, respectively. The values for the GI50 (on Ba/F3 LMNA-NTRK1 cells; on Ba/F3 ETV6-NTRK2 cells; in test [1]) were 3.28 nM, 16.4 nM and 0.51 nM, respectively.
Take `COc1cc2nccc(Oc3ncc(NC(=O)c4nn(C(C)C)cc(-c5ccc(F)cc5)c4=O)cn3)c2cc1OC` [Compound 34, N-(2-((6,7-dimethoxyquinolin-4-yl)oxy)pyrimidine-5-yl)-5-para-fluorophenyl-1-isopropyl-4-oxo-1,4-dihydropyridazine-3-carboxamide]: the IC50 was determined as 5 nM at TrkA (h) and 3 nM on TrkB (h). Also, the results for the GI50 (at Ba/F3 LMNA-NTRK1 cells; on Ba/F3 ETV6-NTRK2 cells; in test [1]) were 14.3 nM, 109 nM and 2.7 nM, respectively.
Regarding `COc1cc2nccc(Oc3ncc(NC(=O)c4cn(C(C)C)nc(-c5ccc(F)cc5)c4=O)cn3)c2cc1OC` [Compound 40, N-(2-((6,7-dimethoxyquinolin-4-yl)oxy)pyrimidine-5-yl)-6-(4-fluorophenyl)-2-isopropyl-5-oxo-2,5-dihydropyridazine-4-carboxamide], the IC50 turned out to be 7 nM on TrkA (h) and 6 nM at TrkB (h). The figures for the GI50 (at Ba/F3 LMNA-NTRK1 cells; in test [1]) were 52.1 nM and 9.1 nM, respectively.
